Entries after “also recorded” stand apart in the source; their conditions may differ. Read-outs that look alike come from different tables or passages of the source.
Assays:
[1] = tested on: SH-SY5Y human neuroblastoma cells; assay: MTT cytotoxicity assay, SH-SY5Y; format: cell-based; settings: Homo sapiens, SH-SY5Y, mean ± SD, read-out: Cytotoxic activity IC50, SH-SY5Y
From the text: (§1) The human neuroblastoma cells (SH-SY5Y), triple-negative breast cancer cells (MDA-MB-231), and human pancreatic cancer cells (Panc1) used in this study were purchased from the American Type Culture Collection (ATCC). The cells were suspended in complete Dulbecco’s modified Eagle medium (DMEM) (Life Technologies, Gibco BRL, Grand Island, NY) supplemented with 10% fetal bovine serum (FBS, Hyclone), 1% penicillin and streptomycin (100 U/mL, Invitrogen) and plated in cell culture dishes. The cultures were maintained at 37 °C in a 5% CO2 95% humidified atmosphere. After reaching 85% confluence, the cells were transferred to 96-well plates or culture dishes. For MTT assays, the cells were seeded into 96-well cell culture plates at a density of 2 × 10^3 cells per well and allowed to adhere for 24 h. The cells were treated with fresh medium containing experimental compounds (100, 10, 1 µM) and incubated in a 5% CO2 incubator for 48 and 72 h. For protein analysis, the cells were seeded into 6-well cell culture plates at a density of 0.5 x 10^6 cells/well and allowed to adhere to the surface for 24 h. The stock solutions of the test compounds (5 mM) were prepared in sterile DMSO, and these stocks were then appropriately diluted with the complete culture medium. DMSO levels were maintained below 1% in the test concentrations.
(§2) Briefly, following exposures, MTT (at a final concentration of 0.5 mg/mL) was added to each well, and plates were incubated for 2 h at 37 °C in a 5% CO2 humidified incubator. The reaction mixture was removed, and DMSO was added to each well. The plates were shaken at room temperature, and the absorbance was measured at 570 nm and 630 nm using a microplate reader (VersaMax, Molecular Devices, USA). Percent survival was plotted relative to vehicle control cells, which were normalized to 100% survival.

[2] = tested on: PANC-1 human pancreatic cancer cells; assay: MTT cytotoxicity assay, PANC-1; format: cell-based; settings: Homo sapiens, PANC-1, MTT, mean ± SD, read-out: Cytotoxic activity IC50, PANC-1
From the text: as §1, §2

[3] = tested on: MDA-MB-231 triple-negative breast cancer cells; assay: MTT cytotoxicity assay, MDA-MB-231; format: cell-based, human; settings: mean ± SD, read-out: Cytotoxic activity IC50, MDA-MB-231
From the text: as §1, §2

[4] = MTT cytotoxicity assay, MCF-10a (nontumorigenic); format: cell-based; settings: MCF-10a nontumorigenic mammary cells, MCF-10a nontumorigenic human mammary cell line, mean ± SD, read-out: Cytotoxic activity IC50, MCF-10a
From the text: [The source words this procedure for another cell line and reports this cell line under the same test.] as §1, §2

[5] = tested on: BAX, Bcl-2, Bcl-xL, caspase-3 and caspase-9 expression in PANC-1 cell line; assay: Western blot of apoptotic proteins, PANC-1; format: cell-based, human; settings: at IC50, 24 and 48 h, vs control
Description: (§3) The cells (0.5 × 10^6 cell/well) were seeded into 6 well plates and incubated for 24 h, and then treated with selected experimental compounds for 24 h and 48 h. Following incubation, the cells were washed with ice-cold 1X PBS and lysed in 1X cell lysis buffer. These lysates were quantified using the BCA protein assay. Then, the cell lysates were analyzed by western blot.
(§4) On a 12% (w/v) tris-glycine denaturing gel, 20 μg protein was separated by electrophoresis, and then transferred to a PVDF membrane. After blocking, the membrane was incubated with primary antibodies, anti-Bax rabbit monoclonal antibody, anti-Bcl-2 rabbit monoclonal antibody, anti-Bcl-xL rabbit monoclonal antibody, anti-caspase-3 rabbit monoclonal antibody, and anti-caspase-9 rabbit monoclonal antibody (1:1000, Cell Signaling Technology) at 4 °C overnight. Following the incubation, the membrane was incubated with an anti-β-actin mouse monoclonal antibody (1:1000, Cell Signaling Technology) at room temperature for 1 h. After washing, the membrane was incubated with peroxidase-conjugated secondary antibodies for 1 h to visualize labeled proteins by enhanced chemiluminescence.

[6] = tested on: BAX, Bcl-2, Bcl-xL, caspase-3 and caspase-9 expression in MDA-MB-231 cell line; assay: Western blot of apoptotic proteins, MDA-MB-231; format: cell-based, human; settings: for BAX protein levels: after only 24 h; for increase of caspase-9 activity: after only 48 h, relative to control
Description: as §3, §4

[7] = tested on: PANC-1 cells; assay: Annexin V-FITC/PI flow cytometry, PANC-1; format: cell-based, human; settings: at cytotoxic concentrations, 48 h
Description: (§5) The cells were harvested after 48 h, washed with PBS, and analyzed using the Annexin V FITC/PI Apoptosis Detection kit (BioVision, Mountain View, CA, USA) with a benchtop flow cytometer (Accuri C6 flow cytometry, Becton Dickinson).

[8] = tested on: MDA-MB-231 cells; assay: Annexin V-FITC/PI flow cytometry, MDA-MB-231; format: cell-based, human; settings: 48 h, control 1.2%
Description: as §5

[9] = tested on: SH-SY5Y cells; assay: Annexin V-FITC/PI flow cytometry, SH-SY5Y; format: cell-based, human; settings: 48 h, control 3.2%
Description: as §5

SMILES	melting point	IC50 [1]	IC50 [2]	IC50 ([3]; Homo sapiens, MDA-MB-231, MTT)	IC50 [4]	IC50 ([3]; MTT)	caspase-3 expression [5]	BAX protein levels ([6]; Western blot)	increase of caspase-9 activity [6]	BAX expression [5]	Bcl-2 expression [5]	Bcl-xL expression [5]	caspase-9 expression [5]	apoptotic cell ratios (Annexin V-FITC/PI result) [7]	percent of the positive apoptotic cells [8]	apoptotic cell ratios [9]	caspase-3 expression (in words) ([6]; Western blot)	caspase-9 expression levels (in words) ([6]; Western blot)	decrease of Bcl-2 expression ([6]; after 24 and 48 h, compared to control)
COc1ccc(NS(=O)(=O)CCNC(=O)c2ccccc2)cc1 [Compound 13, N-(2-(N-(4-methoxyphenyl)sulfamoyl)ethyl)benzamide]	110 to 111 °C	47.5 ± 1.5 µM	17.9 ± 2.1 µM	76.1 ± 1.6 µM	217.8 ± 1.3 µM														
COc1ccc(NS(=O)(=O)CCNC(=O)c2ccc(Cl)cc2)cc1 [Compound 14, 4-Chloro-N-(2-(N-(4-methoxyphenyl)sulfamoyl)ethyl)benzamide]	160 to 161 °C	26 ± 1.4 µM	22.5 ± 1.7 µM	19.9 ± 1.7 µM	109 ± 1.2 µM		increased	significantly increased	1.18 fold	increased	decrease	decrease	increased	no significant changes; also recorded: negative	1.6%	3.8%			
COc1ccc(NS(=O)(=O)CCNC(=O)c2ccc(OC)cc2)cc1 [Compound 15, 4-Methoxy-N-(2-(N-(4-methoxyphenyl)sulfamoyl)ethyl)benzamide]	112 to 113 °C	39.9 ± 1.6 µM	18.1 ± 1.6 µM	33.9 ± 1.8 µM	118 ± 1.4 µM		opposite effect	significantly increased				opposite effect	opposite effect	no significant changes; also recorded: negative	1.4%	3.9%	increased	did not exert any effect	2- to 3 fold
COc1ccc(NS(=O)(=O)CCNC(=O)c2ccc(C)cc2)cc1 [Compound 16, N-(2-(N-(4-methoxyphenyl)sulfamoyl)ethyl)-4-methylbenzamide]	127 to 128 °C	32.7 ± 1.7 µM	21.4 ± 1.7 µM	15.7 ± 1.9 µM	132.9 ± 1.2 µM														

The next lines start with results.

melting point	SMILES	IC50 [1]	IC50 [2]	IC50 ([3]; Homo sapiens, MDA-MB-231, MTT)	IC50 [4]	IC50 ([3]; MTT)	caspase-3 expression [5]	BAX protein levels ([6]; Western blot)	increase of caspase-9 activity [6]	BAX expression [5]	Bcl-2 expression [5]	Bcl-xL expression [5]	caspase-9 expression [5]	apoptotic cell ratios (Annexin V-FITC/PI result) [7]	percent of the positive apoptotic cells [8]	apoptotic cell ratios [9]	caspase-3 expression (in words) ([6]; Western blot)	caspase-9 expression levels (in words) ([6]; Western blot)	decrease of Bcl-2 expression ([6]; after 24 and 48 h, compared to control)
162 to 163 °C	NS(=O)(=O)CCNC(=O)c1ccccc1 [Compound 9, N-(2-sulfamoylethyl)benzamide]	81.1 ± 2.1 µM	85.5 ± 1.7 µM	99.8 ± 1.7 µM	109 ± 1.1 µM														
158 to 159 °C	NS(=O)(=O)CCNC(=O)c1ccc(Cl)cc1 [Compound 10, 4-Chloro-N-(2-sulfamoylethyl)benzamide]	38.6 ± 1.6 µM	89.1 ± 1.7 µM	77 µM	172.1 ± 1.4 µM	79.1 ± 1.3 µM	effectively increased	significantly increased	1.12 fold										
176 to 177 °C	COc1ccc(C(=O)NCCS(N)(=O)=O)cc1 [Compound 11, 4-Methoxy-N-(2-sulfamoylethyl)benzamide]	237.8 ± 1.7 µM	83.8 ± 1.5 µM	114 ± 1.3 µM	81.1 ± 1.4 µM														
181 to 182 °C	Cc1ccc(C(=O)NCCS(N)(=O)=O)cc1 [Compound 12, 4-Methyl-N-(2-sulfamoylethyl)benzamide]	79.5 ± 1.8 µM	44.6 ± 1.9 µM	81 ± 1.6 µM	106 ± 1.4 µM														

— article PMC7763113, “Design, synthesis, cytotoxic activity, and apoptosis inducing effects of 4- and N-substituted benzoyltaurinamide derivatives” (Turkish Journal of Chemistry, 2020)
